For this assay, the target named is T1, human TLR8 (Homo sapiens, UniProt Q9NR97).
T1 construct: host or cells: HEK293 (HEK-Blue hTLR8)
T1 sequence (Q9NR97 27-1041): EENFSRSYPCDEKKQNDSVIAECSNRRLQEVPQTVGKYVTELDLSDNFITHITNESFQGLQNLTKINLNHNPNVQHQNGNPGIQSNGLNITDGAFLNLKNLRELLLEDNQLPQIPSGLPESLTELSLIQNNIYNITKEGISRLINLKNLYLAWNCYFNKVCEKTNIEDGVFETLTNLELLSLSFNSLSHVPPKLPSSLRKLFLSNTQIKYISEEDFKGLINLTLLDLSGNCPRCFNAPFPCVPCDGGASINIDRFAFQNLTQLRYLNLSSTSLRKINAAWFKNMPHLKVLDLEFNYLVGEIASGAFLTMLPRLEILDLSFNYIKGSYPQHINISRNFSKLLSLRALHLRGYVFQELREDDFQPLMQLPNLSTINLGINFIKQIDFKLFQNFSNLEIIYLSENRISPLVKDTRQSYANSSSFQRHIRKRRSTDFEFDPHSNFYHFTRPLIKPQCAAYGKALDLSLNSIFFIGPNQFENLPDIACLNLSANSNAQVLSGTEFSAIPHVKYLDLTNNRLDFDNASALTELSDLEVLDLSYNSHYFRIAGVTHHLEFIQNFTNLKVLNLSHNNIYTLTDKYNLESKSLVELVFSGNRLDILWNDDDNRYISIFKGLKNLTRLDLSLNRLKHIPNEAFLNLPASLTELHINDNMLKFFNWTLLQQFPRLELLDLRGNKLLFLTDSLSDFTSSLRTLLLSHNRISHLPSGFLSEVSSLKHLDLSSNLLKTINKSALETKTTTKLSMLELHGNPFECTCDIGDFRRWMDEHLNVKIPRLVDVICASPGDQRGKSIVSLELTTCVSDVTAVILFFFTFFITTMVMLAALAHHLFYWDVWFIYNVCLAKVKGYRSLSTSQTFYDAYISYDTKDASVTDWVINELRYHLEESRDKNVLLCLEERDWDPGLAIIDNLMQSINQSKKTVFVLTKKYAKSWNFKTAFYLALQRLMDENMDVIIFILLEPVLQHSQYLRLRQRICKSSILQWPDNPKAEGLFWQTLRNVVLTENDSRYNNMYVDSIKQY
Briefly: HEK293-Blue-hTLR-8 cells assay (SEAP reporter, R848 stimulation). As to conditions: HEK293-Blue-hTLR8 cells, R848, 20 hrs; read-out: HEK/hTLR8 IC50. Type of assay: cell-based. As to the method:
The following tests were carried out in order to determine the activity of the compounds of formula (I) and (Ia) in HEK293-Blue-hTLR-7/8/9 cells assay.
A stable HEK293-Blue-hTLR-8 cell line was purchased from InvivoGen (Cat. #: hkb-htlr8, San Diego, California, USA). These cells were originally designed for studying the stimulation of human TLR8 by monitoring the activation of NF-κB. A SEAP (secreted embryonic alkaline phosphatase) reporter gene was placed under the control of the IFN-β minimal promoter fused to five NF-κB and AP-1-binding sites. The SEAP was induced by activating NF-κB and AP-1 via stimulating HEK-Blue hTLR8 cells with TLR8 ligands. Therefore the reporter expression was declined by TLR8 antagonist under the stimulation of a ligand, such as R848, for incubation of 20 hrs. The cell culture supernatant SEAP reporter activity was determined using QUANTI-Blue™ kit (Cat. #: rep-qb1, Invivogen, San Diego, Ca, USA) at a wavelength of 640 nm, a detection medium that turns purple or blue in the presence of alkaline phosphatase.
HEK293-Blue-hTLR8 cells were incubated at a density of 250,000˜450,000 cells/mL in a volume of 170 μL in a 96-well plate in Dulbecco's Modified Eagle's medium (DMEM) containing 4.5 g/L glucose, […] penicillin, […], […] Normocin, 2 mM L-glutamine, 10% (v/v) heat-inactivated fetal bovine serum with addition of 20 μL test compound in a serial dilution in the presence of final DMSO at 1% and 10 μL of 60 uM R848 in above DMEM, perform incubation under 37° C. in a C02 incubator for 20 hrs. Then 20 μL of the supernatant from each well was incubated with 180 μL Quanti-blue substrate solution at 37° C. for 2 hrs and the absorbance was read at 620-655 nm using a spectrophotometer. The signaling pathway that TLR8 activation leads to downstream NF-κB activation has been widely accepted, and therefore similar reporter assay was modified for evaluating TLR8 antagonist.
With `C[C@H]1CN(c2ccnc3c2cnn3C)Cc2ccc(N3CCC(N4CCNCC4)CC3)cc21` [Example 10, (4R)-4-methyl-2-(1-methylpyrazolo[3,4-b]pyridin-4-yl)-6-(4-piperazin-1-yl-1-piperidyl)-3,4-dihydro-1H-isoquinoline], the IC50 came to 1 nM.
In the case of `C[C@H]1CN(c2ccnc3c2cnn3C)Cc2ccc(N3CCNC(CO)C3)cc21` (stereo partly drawn) [Example 49, [4-[(4R)-4-methyl-2-(1-methylpyrazolo[3,4-b]pyridin-4-yl)-3,4-dihydro-1H-isoquinolin-6-yl]piperazin-2-yl]methanol] it was 2 nM; in that of `C[C@H]1CN(c2ccnc3c2cnn3C)Cc2ccc(OC[C@@H]3CNCCN3C)cc21` [Example 44, (4R)-4-methyl-2-(1-methylpyrazolo[3,4-b]pyridin-4-yl)-6-[[(2S)-1-methylpiperazin-2-yl]methoxy]-3,4-dihydro-1H-isoquinoline], 5 nM.
As to `CC1CN(c2ccnc3c2cnn3C)Cc2ccc(N3CCC4(CCNCC4)CC3)cc21` (stereo not drawn) [Example 4, 3-[4-methyl-2-(1-methylpyrazolo[3,4-b]pyridin-4-yl)-3,4-dihydro-1H-isoquinolin-6-yl]-3,9-diazaspiro[5.5]undecane], the IC50 came to 7 nM.
With `C[C@H]1CN(c2ccnc3c2cnn3C)Cc2ccc(N3CCN(S(=O)(=O)C4CCNC4)CC3)cc21` (stereo partly drawn) [Example 33, (4R)-4-methyl-2-(1-methylpyrazolo[3,4-b]pyridin-4-yl)-6-(4-pyrrolidin-3-ylsulfonylpiperazin-1-yl)-3,4-dihydro-1H-isoquinoline], the IC50 amounted to 15 nM.
In the case of `CO[C@H]1CN(c2ccc3c(n2)[C@@H](C)CN(c2cc(C)nc4c2cnn4C)C3)CC[C@@H]1N` [Example 65, (3S,4S)-3-methoxy-1-[(8S)-6-(1,6-dimethylpyrazolo[3,4-b]pyridin-4-yl)-8-methyl-7,8-dihydro-5H-1,6-naphthyridin-2-yl]piperidin-4-amine] it was 1 nM; in that of `Cc1cc(N2Cc3ccc(N4CCC5(CCNCC5)CC4)cc3C(C)C2)c2cnn(C)c2n1` (stereo not drawn) [Example 5, 3-[2-(1,6-dimethylpyrazolo[3,4-b]pyridin-4-yl)-4-methyl-3,4-dihydro-1H-isoquinolin-6-yl]-3,9-diazaspiro[5.5]undecane], 10 nM.
On to `C[C@H]1CN(c2ccnc3c2cnn3C)Cc2ccc(N3C[C@@H]4CCNC[C@@H]4C3=O)cc21` (single isomer, unassigned) [Example 57], for which the IC50 amounted to 24 nM.
Take `C[C@H]1CN(c2ccnc3c2cnn3C)Cc2ccc(N3C[C@H]4CNCCN4C3=O)cc21` [Example 24, (8aR)-2-[(4R)-4-methyl-2-(1-methylpyrazolo[3,4-b]pyridin-4-yl)-3,4-dihydro-1H-isoquinolin-6-yl]-1,5,6,7,8,8a-hexahydroimidazo[1,5-a]pyrazin-3-one]: the IC50 stood at 2 nM.
In the case of `C[C@H]1CN(c2ccnc3c2cnn3C)Cc2ccc(N3CCN(C(=O)C4CNCCO4)CC3)cc21` (stereo partly drawn) [Example 12, morpholin-2-yl-[4-[(4R)-4-methyl-2-(1-methylpyrazolo[3,4-b]pyridin-4-yl)-3,4-dihydro-1H-isoquinolin-6-yl]piperazin-1-yl]methanone] it was 8 nM; in that of `Cc1cc(N2Cc3ccc(OC[C@H]4CNCCN4)cc3[C@@H](C)C2)c2cnn(C)c2n1` [Example 30, (4R)-2-(1,6-dimethylpyrazolo[3,4-b]pyridin-4-yl)-4-methyl-6-[[(2R)-piperazin-2-yl]methoxy]-3,4-dihydro-1H-isoquinoline], 2 nM; in that of `Cc1cc(N2Cc3ccc(N4CCC(N(C)C)CC4)nc3[C@@H](C)C2)c2cnn(C)c2n1` [Example 60, N,N-dimethyl-1-[(8S)-6-(1,6-dimethylpyrazolo[3,4-b]pyridin-4-yl)-8-methyl-7,8-dihydro-5H-1,6-naphthyridin-2-yl]piperidin-4-amine], 0.5 nM.
In the case of `Cc1cc(N2Cc3cnc(N4CCNC5(CC5)C4)cc3[C@@H](C)C2)c2cnn(C)c2n1` [Example 75, (4R)-6-(4,7-diazaspiro[2.5]octan-7-yl)-2-(1,6-dimethylpyrazolo[3,4-b]pyridin-4-yl)-4-methyl-3,4-dihydro-1H-2,7-naphthyridine] it was 13 nM; in that of `COC[C@H]1CN(c2cc3c(cn2)CN(c2cc(C)nc4c2cnn4C)C[C@@H]3C)CCN1` [Example 81, (4R)-2-(1,6-dimethylpyrazolo[3,4-b]pyridin-4-yl)-4-methyl-6-[(3R)-3-(methoxymethyl)piperazin-1-yl]-3,4-dihydro-1H-2,7-naphthyridine], 8 nM; in that of `Cn1ncc2c(N3Cc4ccc(N5CCC6(CCNCC6)CC5)cc4C(C)(C)C3)ccnc21` [Example 6, 3-[4,4-dimethyl-2-(1-methylpyrazolo[3,4-b]pyridin-4-yl)-1,3-dihydroisoquinolin-6-yl]-3,9-diazaspiro[5.5]undecane], 18 nM.
Take `C[C@H]1CN(c2ccnc3c2cnn3C)Cc2ccc(N3C[C@]4(CCNC4)CC3=O)cc21` (single isomer, unassigned) [Example 54]: the IC50 was 5 nM.
In the case of `C[C@H]1CN(c2ccnc3c2cnn3C)Cc2ccc(N3CC4CNC[C@H]4C3=O)cc21` (relative stereo) [Example 17, cis-5-[(4R)-4-methyl-2-(1-methylpyrazolo[3,4-b]pyridin-4-yl)-3,4-dihydro-1H-isoquinolin-6-yl]-1,2,3,3a,6,6a-hexahydropyrrolo[3,4-c]pyrrol-4-one] it was 11 nM; in that of `C[C@H]1CN(c2ccnc3c2cnn3C)Cc2ccc(N3C[C@@H]4CNCCN4C3=O)cc21` [Example 25, (8aS)-2-[(4R)-4-methyl-2-(1-methylpyrazolo[3,4-b]pyridin-4-yl)-3,4-dihydro-1H-isoquinolin-6-yl]-1,5,6,7,8,8a-hexahydroimidazo[1,5-a]pyrazin-3-one], below 0.3 nM.
In the case of `CO[C@@H]1CN(C2CCN(c3ccc4c(c3)[C@@H](C)CN(c3ccnc5c3cnn5C)C4)CC2)C[C@H]1N` [Example 11, (3R,4R)-4-methoxy-1-[1-[(4R)-4-methyl-2-(1-methylpyrazolo[3,4-b]pyridin-4-yl)-3,4-dihydro-1H-isoquinolin-6-yl]-4-piperidyl]pyrrolidin-3-amine] it was below 0.3 nM; in that of `Cc1cc(N2Cc3ccc(N4CCC(O)(CN(C)C)CC4)nc3[C@@H](C)C2)c2cnn(C)c2n1` [Example 61, 4-[(dimethylamino)methyl]-1-[(8S)-6-(1,6-dimethylpyrazolo[3,4-b]pyridin-4-yl)-8-methyl-7,8-dihydro-5H-1,6-naphthyridin-2-yl]piperidin-4-ol], 0.5 nM.
In the case of `C[C@H]1CN(c2ccnc3c2cnn3C)Cc2ccc(N3C[C@H]4CCNC[C@H]4C3=O)cc21` (single isomer, unassigned) [Example 56] it was 7 nM.

Values taken from patent US20240317735A1, “HYDROISOQUINOLINE OR HYDRONAPHTHYRIDINE COMPOUNDS FOR THE TREATMENT OF AUTOIMMUNE DISEASE” (Hoffmann-La Roche Inc., priority 2020, published 2024).
